Results: patent US5430032A, “Benzopyrido piperidylidene compounds, compositions, methods of manufacture and methods of use” (Schering Corporation, priority 1994, dated 1995)

Experiments:
[1] = system: platelet-activating factor (PAF); experiment: Platelet aggregation assay (PAF-induced aggregation, human platelet-rich plasma); assay type: cell-based; details: PAF-induced aggregation of human platelets, in vitro, read-out: PAF Antagonism (in vitro) IC50
Method: Platelet-activating factor (PAF) causes aggregation of platelets by a receptor-mediated mechanism. Therefore, PAF-induced platelet aggregation provides a simple and convenient assay to screen compounds for PAF antagonism. Human blood (50 mL) was collected from healthy male donors in an anticoagulant solution (5 mL) containing sodium citrate (3.8%) and dextrose (2%). Blood was centrifuged at 110×g for 15 min. and the supernatant platelet-rich plasma (PRP) carefully transferred into a polypropylene tube. Platelet-poor-plasma (PPP) was prepared by centrifuging PRP at 12,000×g for 2 min. (Beckman Microfuge B). PRP was used within 3 hr. of drawing the blood. PAF was dissolved in chloroform:methanol (1:1, v/v) at a concentration of 2 mg/mL and stored at -70° C. An aliquot of this solution was transferred to a polypropylene tube and dried under a flow of nitrogen gas. To the dried sample was added Hepes-saline-BSA (BSA=bovine serum albumen) buffer (25 mM Hepes, pH 7.4, […], 0.7 mM MgCl2 and 0.1% BSA) to obtain a 1 mM solution and sonicated for 5 min. in a bath sonicator. This stock solution was further diluted to appropriate concentrations in Hepes-saline-BSA buffer. Collagen (Sigma) and adenosine diphosphate (ADP) (Sigma) were purchased as solutions. Test compounds were initially dissolved in dimethyl sulfoxide (DMSO) at a concentration of 50 mM and then further diluted in Hepes-saline-BSA buffer to achieve appropriate concentrations.
When an aggregating agent such as PAF is added to PRP, platelets aggregate. An aggregometer quantifies this aggregation by measuring and comparing light (infra-red) transmission through PPP and PRP. Aggregation assays were performed using a dual-channel aggregometer (Model 440, Chrono-Log Corp., Havertown, Pa.). PRP (0.45 mL) in aggregometer cuvettes was continually stirred (37° C.). Solutions (50 μL) of test compounds or vehicle were added to the PRP and, after incubation for 2 min., 10-15 μl aliquots of PAF solution were added to achieve a final concentration of 1-5×10^-8 M. In different experiments the aggregatory response was kept within a set limit by varying the concentration of PAF. Incubations were continued until the increase in light transmission reached a maximum (usually 2 min.). This increase in light transmission reflecting platlet aggregation is transmitted to a computer by the Chrono-Log model 810 AGGRO/LINK interface. The AGGRO/LINK calculates the slope of transmission change, thus providing the rate of aggregation. Values for inhibition were calculated by comparing rates of aggregation obtained in the absence and the presence of the compound. For each experiment, a standard PAF antagonist such as 8-chloro-6,11-dihydro-11-(1-acetyl-4-piperidylidene)-5H-benzo[5,6]cyclohepta[1,2-b]pyridine was used as a positive control.
Compounds that inhibit PAF-induced aggregation were tested against several other aggregating agents including collagen (0.2 mg/mL) and ADP (2 μM). Compounds showing no activity against these latter agents were considered to be specific PAF antagonists.

Histamine = experiment: Histamine-induced bronchospasm in guinea pigs (in vivo, oral); design: species or system guinea pig; details: for Agonist Bronchospasm (in vivo)-Oral, Histamine, Inhibition: 2 hours after dose, histamine 10 ug/kg i.v.; for effect on the histamine response, compared with the PAF response: both responses at similar doses, in words
PAF = experiment: PAF-induced bronchospasm in guinea pigs (in vivo, oral); design: species or system guinea pig; details: for Agonist Bronchospasm (in vivo)-Oral, PAF, Inhibition: 2 hours after dose, PAF 0.4 μg/kg i.v.; for effect on the PAF response, compared with the histamine response: both responses at similar doses, in words

O=C(c1cc[n+]([O-])cc1)N1CCN(C2c3ccc(Cl)cc3SCc3cccnc32)CC1 (stereo not shown) [Compound 5]
IC50 [1]: 300 nM | Agonist Bronchospasm (in vivo)-Oral, Histamine, Inhibition (Histamine; 10 mg/kg): 9% | Agonist Bronchospasm (in vivo)-Oral, PAF, Inhibition (PAF; 1 mg/kg): 38%

CC(=O)N1CCC(=C2c3ccc(Cl)cc3CCc3cccnc32)CC1 [Compound 1]
IC50 [1]: 600 nM | effect on the histamine response, compared with the PAF response (Histamine): there is an effect on both responses at similar doses | Agonist Bronchospasm (in vivo)-Oral, Histamine, Inhibition (Histamine; 3 mg/kg): 49% | effect on the PAF response, compared with the histamine response (PAF): there is an effect on both responses at similar doses | Agonist Bronchospasm (in vivo)-Oral, PAF, Inhibition (PAF; 5 mg/kg): 49%

O=C(c1cc[n+]([O-])cc1)N1CCC(=C2c3ccc(Cl)cc3SCc3cccnc32)CC1 [Compound 3]
IC50 [1]: 40 nM | Agonist Bronchospasm (in vivo)-Oral, Histamine, Inhibition (Histamine; 10 mg/kg): 9% | Agonist Bronchospasm (in vivo)-Oral, PAF, Inhibition (PAF; 1 mg/kg): 91%

O=C(c1cc[n+]([O-])cc1)N1CCC(=C2c3ccc(Cl)cc3CCc3cccnc32)CC1 [Compound 2]
IC50 [1]: 200 nM | effect on the histamine response, compared with the PAF response (Histamine): there is an effect on both responses at similar doses | Agonist Bronchospasm (in vivo)-Oral, Histamine, Inhibition (Histamine; 3 mg/kg): 37% | effect on the PAF response, compared with the histamine response (PAF): there is an effect on both responses at similar doses | Agonist Bronchospasm (in vivo)-Oral, PAF, Inhibition (PAF; 3 mg/kg): 93%

O=C(c1cc[n+]([O-])cc1)N1CCN(C2c3ccc(Cl)cc3OCc3cccnc32)CC1 (stereo not shown) [Compound 4]
IC50 [1]: 200 nM | Agonist Bronchospasm (in vivo)-Oral, Histamine, Inhibition (Histamine; 3 mg/kg): 5% | Agonist Bronchospasm (in vivo)-Oral, PAF, Inhibition (PAF; 1 mg/kg): 68%
